Values quoted from earlier work as cited in patent US20060122095A1, “Mucus formulation for mucosal surfaces and uses thereof” (priority 2002, published 2006).
“Also recorded” adds a separate entry of the source.

Columns and labels:
HIV-1 [1] = conditions: previous evaluations of UC-781 formulations
HIV-1 [2] = test system: HIV-1
[3] = multiple routes of administration, different species of animals
[4] = test system: different cell types in culture; conditions: even at extremely high concentrations
HIV-1 [5] = conditions: after complete washing away of unbound drug

SMILES: CC(C)=CCOc1cc(NC(=S)c2ccoc2C)ccc1Cl [UC-781, N-[4-chloro-3-(3-methyl-2-butenyloxy)phenyl]]
- solubility in water: limited solubility in water
- activity in explant model (HIV-1 [1]): remained active
- effectiveness against strains of HIV-1 that encode known NNRTI resistance mutations (HIV-1 [2]; compared with wild type isolates): equally effective
- HIV-1 inhibition effect, inactivating concentration (HIV-1 [2]; primary wild type isolates of clades A through G, in vitro): nanomolar range; also recorded: nanomolar concentrations
- bioavailability [3]: poor bioavailability
- toxic effect on cells in culture [4]: no toxic effect
- resistance of pre-treated cells to infection (memory effect) (HIV-1 [5]): remained resistant to infection for several days
